For series [1], the target named is ATR/ATRIP (Homo sapiens (Human), UniProt Q13535). Put plainly: ATR/ATRIP kinase assay (TR-FRET, p53 Ser15 phosphorylation). Format: biochemical. The conditions noted are these: 0.5 μM ATP, 50 nM p53. The gist of the method:
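Full-length human ATR/ATRIP co-expressed in mammalian cells (typically 0.3 nM) preincubated with compound 15 min at 22° C, then 50 nM cmyc-p53 and 0.5 μM ATP added for typically 25 min; HEPES pH 8.0 with Mg2+/Mn2+. p53 Ser15 phosphorylation read by HTRF (665/615 ratio); IC50 by nonlinear regression.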

Series [2] concerns phosphorylation of Chk1 (Ser 345) in HT29 colon adenocarcinoma cells. The series is described as follows: pCHK1 cellular assay. Format: cell-based. The conditions noted are these: Homo sapiens, HT-29, hydroxyurea 3 mM, 4 h. The method in brief:
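HT29 cells plated ≥20 h, then compound (1 nM–30 μM final) with hydroxyurea (3 mM final) added together for 4 h at 37 °C. After MeOH/Triton fixation-permeabilisation, anti-pChk1 immunostaining plus nuclear stain; nuclear pChk1 imaged by confocal high content reader, reported as % positive nuclei.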

Series [3] concerns the target Kv11.1 (hERG) ion channel (Homo sapiens (Human), UniProt Q12809). The series is described as follows: Kv11.1 (hERG) ion channel activity, whole cell patch clamp in HEK293. Format: cell-based. The conditions noted are these: for Ki: heading: hERG Ki, HEK293 cells stably expressing hERG, patch clamp. The procedure:
Kv11.1 (hERG) Ion Channel Activity
In this assay, a potential in vitro effect of test compounds on the Kv11.1 (hERG) ion channel current is investigated which mediates the rapidly activating, delayed rectifier cardiac potassium current (IKr). The assay is performed with a stable Kv11.1 (hERG) transfected human embryonic kidney cell line (HEK293) by whole cell patch clamp technique carried out at room temperature.
The Kv11.1 (hERG) ion channel blocker quinidine is used as reference compound. The effects of the test compounds and quinidine are normalized to the corresponding vehicle control. The whole cell recordings are carried out with an automated patch clamp device Patchliner™, Nanion Technologies, Munich). Hereby the Patch Clamp measurements run on silicate-coated chips with a hole of a defined diameter. Solutions, cell suspension and compounds are applied by a Teflon-laminated pipette needle through microfluidic silicate-laminated channels. Commercial patch clamp amplifiers (EPC10, HEKA Elektronik Dr. Schulze GmbH, Germany) are used for the patch clamp recordings. HEK293 cells stably expressing the hERG gene are held at −80 mV. Steady-state inhibition of Kv11.1 (hERG) potassium current due to test/reference compound application is measured using a pulse pattern with fixed amplitudes: 51 ms/−80 mV, 500 ms/+40 mV, 500 ms/−40 mV, 200 ms/−80 mV. The hERG-specific voltage protocol is repeated at 10 s intervals. The leak current is subtracted by a P4 leak subtraction. Cells are resuspended in extracellular patch clamp solution (EC) and applied into the chip. After trapping the cell, the EC is exchanged by seal enhancer solution (SE) to improve the sealing procedure. When the whole cell configuration is attained, seal enhancer is washed out by the application of EC. The recording is started in EC for 1.5 min. Afterwards DMSO (vehicle control, 0.1% DMSO) is applied and the control current is measured for 3 min. Following control steady-state current, test compound is applied twice at the same concentration and the tail current is measured for 3.5 min each. For the determination of a concentration-relationship, the test compound is applied as a cumulative concentration-response curve and each concentration is measured for 5 min. The reference compound quinidine is treated in the same way. The effect on Kv11.1 (hERG) ion channel activity is judged from the tail current amplitude monitored at −40 mV (current of interest, COI). Results are calculated from the last recorded current traces. Changes in Kv11.1 (hERG) ion channel activity between control value, defined as 100% Kv11.1 (hERG) ion channel activity, application of test compound and application of quinidine is reported as percent change of control value of COI. An aliquot of test compound is collected for concentration verification during the recording. The sample is immediately measured by HPLC and the final compound concentration within the assay is calculated according to a calibration curve.

Experimental findings from US12371430B2, “5-morpholin-4-yl-pyrazolo[4,3-b]pyridine derivatives” (Merck Patent GmbH, priority 2018, dated 2025) are described below.

Sequence of Kv11.1 (hERG) ion channel (Q12809 whole entry): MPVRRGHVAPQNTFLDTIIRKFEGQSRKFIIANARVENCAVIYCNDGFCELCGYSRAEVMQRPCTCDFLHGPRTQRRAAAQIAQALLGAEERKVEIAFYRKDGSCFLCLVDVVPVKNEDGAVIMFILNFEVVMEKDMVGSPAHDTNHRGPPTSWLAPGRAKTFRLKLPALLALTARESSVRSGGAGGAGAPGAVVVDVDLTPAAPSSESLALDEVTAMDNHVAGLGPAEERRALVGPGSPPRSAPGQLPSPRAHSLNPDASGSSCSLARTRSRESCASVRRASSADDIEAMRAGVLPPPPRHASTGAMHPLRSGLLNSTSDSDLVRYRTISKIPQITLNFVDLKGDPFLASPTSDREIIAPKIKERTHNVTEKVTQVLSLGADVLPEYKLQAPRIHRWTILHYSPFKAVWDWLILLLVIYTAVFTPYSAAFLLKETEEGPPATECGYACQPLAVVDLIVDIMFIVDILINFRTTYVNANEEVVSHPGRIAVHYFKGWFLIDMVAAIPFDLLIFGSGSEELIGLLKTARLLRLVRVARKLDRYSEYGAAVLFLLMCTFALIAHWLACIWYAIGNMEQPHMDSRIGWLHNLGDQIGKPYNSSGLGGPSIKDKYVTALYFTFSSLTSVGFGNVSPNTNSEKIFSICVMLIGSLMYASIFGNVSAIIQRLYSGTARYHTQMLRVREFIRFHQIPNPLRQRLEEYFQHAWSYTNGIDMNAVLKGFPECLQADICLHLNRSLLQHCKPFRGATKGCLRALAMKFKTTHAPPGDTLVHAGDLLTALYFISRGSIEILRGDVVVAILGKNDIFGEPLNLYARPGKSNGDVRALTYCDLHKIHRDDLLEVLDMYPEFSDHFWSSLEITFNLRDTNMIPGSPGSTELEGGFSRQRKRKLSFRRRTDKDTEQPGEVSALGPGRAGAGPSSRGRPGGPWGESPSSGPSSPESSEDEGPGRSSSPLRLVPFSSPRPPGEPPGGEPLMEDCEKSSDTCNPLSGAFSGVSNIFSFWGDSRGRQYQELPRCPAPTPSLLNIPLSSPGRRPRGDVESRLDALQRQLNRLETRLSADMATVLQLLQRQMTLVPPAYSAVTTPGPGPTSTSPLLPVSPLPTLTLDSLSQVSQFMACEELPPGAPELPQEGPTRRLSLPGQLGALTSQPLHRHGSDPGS
Sequence of ATR/ATRIP (Q13535 whole entry): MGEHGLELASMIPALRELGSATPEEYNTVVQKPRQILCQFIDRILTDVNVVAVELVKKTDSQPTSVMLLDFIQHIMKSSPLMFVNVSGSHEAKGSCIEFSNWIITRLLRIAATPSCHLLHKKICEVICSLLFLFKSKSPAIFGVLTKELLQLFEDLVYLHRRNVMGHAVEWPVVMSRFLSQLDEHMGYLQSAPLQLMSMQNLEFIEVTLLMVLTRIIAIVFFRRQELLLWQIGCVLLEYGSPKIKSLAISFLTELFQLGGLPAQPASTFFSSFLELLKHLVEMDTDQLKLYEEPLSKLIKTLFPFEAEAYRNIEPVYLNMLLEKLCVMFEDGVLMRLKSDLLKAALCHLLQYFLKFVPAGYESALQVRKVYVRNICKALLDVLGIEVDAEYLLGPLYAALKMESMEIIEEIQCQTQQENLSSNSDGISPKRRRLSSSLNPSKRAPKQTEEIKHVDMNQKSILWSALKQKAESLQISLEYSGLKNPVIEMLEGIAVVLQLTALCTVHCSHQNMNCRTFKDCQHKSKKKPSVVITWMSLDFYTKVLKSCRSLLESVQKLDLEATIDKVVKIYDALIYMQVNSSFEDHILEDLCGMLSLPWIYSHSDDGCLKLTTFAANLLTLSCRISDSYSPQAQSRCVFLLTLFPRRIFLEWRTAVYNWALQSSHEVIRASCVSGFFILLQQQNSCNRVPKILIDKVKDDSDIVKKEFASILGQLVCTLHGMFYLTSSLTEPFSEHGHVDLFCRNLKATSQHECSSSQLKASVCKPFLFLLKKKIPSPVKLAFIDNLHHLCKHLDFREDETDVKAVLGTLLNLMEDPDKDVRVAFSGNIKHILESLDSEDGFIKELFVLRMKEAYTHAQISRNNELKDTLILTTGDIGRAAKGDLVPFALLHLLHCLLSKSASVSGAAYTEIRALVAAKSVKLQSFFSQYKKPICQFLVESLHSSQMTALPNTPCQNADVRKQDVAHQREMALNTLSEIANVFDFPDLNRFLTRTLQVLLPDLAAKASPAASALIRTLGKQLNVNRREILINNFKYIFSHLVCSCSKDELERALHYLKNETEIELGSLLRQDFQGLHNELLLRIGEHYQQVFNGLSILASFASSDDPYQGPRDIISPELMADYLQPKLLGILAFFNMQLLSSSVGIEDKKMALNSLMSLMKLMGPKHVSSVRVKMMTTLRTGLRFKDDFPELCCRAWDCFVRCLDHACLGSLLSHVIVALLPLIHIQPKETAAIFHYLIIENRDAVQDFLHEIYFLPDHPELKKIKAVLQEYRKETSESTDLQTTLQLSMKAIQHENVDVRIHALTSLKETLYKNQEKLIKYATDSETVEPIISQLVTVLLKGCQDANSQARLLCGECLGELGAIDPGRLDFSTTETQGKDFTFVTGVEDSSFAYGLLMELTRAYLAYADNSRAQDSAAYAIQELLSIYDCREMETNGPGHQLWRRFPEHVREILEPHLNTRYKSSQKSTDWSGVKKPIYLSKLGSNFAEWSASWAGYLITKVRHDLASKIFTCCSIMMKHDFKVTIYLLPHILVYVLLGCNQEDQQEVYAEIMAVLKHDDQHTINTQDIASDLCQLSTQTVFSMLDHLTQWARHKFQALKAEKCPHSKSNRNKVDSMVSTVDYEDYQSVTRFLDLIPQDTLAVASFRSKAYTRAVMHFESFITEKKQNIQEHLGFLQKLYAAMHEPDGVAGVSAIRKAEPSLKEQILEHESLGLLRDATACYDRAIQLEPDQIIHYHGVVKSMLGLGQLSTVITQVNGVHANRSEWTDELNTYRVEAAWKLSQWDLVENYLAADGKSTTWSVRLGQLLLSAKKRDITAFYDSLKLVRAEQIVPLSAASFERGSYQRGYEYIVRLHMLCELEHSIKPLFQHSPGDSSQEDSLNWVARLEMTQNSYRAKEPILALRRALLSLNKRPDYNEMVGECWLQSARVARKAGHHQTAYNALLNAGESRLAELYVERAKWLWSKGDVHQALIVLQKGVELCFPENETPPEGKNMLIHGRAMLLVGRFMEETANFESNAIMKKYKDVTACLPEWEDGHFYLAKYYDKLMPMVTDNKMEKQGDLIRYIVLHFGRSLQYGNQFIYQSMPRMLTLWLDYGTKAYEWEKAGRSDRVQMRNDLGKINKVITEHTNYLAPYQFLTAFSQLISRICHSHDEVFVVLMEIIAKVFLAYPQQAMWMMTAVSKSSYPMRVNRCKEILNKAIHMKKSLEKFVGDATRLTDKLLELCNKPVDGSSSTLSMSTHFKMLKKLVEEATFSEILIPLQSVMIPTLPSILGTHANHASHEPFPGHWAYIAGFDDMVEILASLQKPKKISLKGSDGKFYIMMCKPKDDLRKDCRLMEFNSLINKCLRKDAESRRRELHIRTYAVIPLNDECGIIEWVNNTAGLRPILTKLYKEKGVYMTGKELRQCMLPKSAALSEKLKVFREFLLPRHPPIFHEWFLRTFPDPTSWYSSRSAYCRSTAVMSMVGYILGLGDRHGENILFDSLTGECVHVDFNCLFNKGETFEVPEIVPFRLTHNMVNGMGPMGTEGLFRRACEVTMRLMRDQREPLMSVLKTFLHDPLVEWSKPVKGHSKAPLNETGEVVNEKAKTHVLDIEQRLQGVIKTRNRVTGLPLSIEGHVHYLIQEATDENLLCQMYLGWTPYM
Sequence of ATR/ATRIP (Q8WXE1 whole entry partner): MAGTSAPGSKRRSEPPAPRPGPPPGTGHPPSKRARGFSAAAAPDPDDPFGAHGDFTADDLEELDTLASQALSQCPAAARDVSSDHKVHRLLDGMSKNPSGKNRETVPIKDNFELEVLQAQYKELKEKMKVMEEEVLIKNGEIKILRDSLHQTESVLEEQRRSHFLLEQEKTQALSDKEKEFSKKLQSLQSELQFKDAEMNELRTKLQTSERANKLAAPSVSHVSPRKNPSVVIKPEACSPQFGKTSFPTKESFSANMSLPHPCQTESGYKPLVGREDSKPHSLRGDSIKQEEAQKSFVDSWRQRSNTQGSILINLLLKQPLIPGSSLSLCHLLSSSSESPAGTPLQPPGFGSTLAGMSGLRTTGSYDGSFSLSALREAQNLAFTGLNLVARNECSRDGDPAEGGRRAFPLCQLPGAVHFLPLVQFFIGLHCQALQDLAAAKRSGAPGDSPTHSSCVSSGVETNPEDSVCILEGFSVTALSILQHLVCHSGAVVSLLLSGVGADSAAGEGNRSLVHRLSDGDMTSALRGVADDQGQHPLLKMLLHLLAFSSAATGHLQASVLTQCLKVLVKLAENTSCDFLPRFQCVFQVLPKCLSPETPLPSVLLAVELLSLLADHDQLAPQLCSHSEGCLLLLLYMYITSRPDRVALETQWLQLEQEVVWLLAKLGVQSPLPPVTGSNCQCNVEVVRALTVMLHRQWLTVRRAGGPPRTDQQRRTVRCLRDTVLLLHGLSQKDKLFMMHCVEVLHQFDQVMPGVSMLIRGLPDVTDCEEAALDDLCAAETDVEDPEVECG

As to `Cc1cc(S(C)(=O)=O)ccc1-c1cc(N2CCOC[C@H]2C)nc2c(-c3cc[nH]n3)nn(C)c12` [Compound 50, (3R)-4-[7-(4-Methanesulfonyl-2-methylphenyl)-1-methyl-3-(1H-pyrazol-3-yl)-1H-pyrazolo[4,3-b]pyridin-5-yl]-3-methylmorpholine], the half-inhibitory concentration (IC50) in series [1] was 1.3 nM; in series [2], less than 10 nM. Besides, in series [3] (@ 10 μM), the “hERG % effect @ conc” value is −17%. In series [3], this compound gave a Ki greater than 10000 nM.

On to `C[C@@H]1COCCN1c1cc(-c2ccnn2C)c2c(n1)c(-c1cc[nH]n1)nn2C` [Compound 61, (3R)-3-Methyl-4-[1-methyl-7-(1-methyl-1H-pyrazol-5-yl)-3-(1H-pyrazol-3-yl)-1H-pyrazolo[4,3-b]pyridin-5-yl]morpholine], for which the concentration for half-maximal inhibition (IC50) is 0.6 nM in series [1] and 10 to 100 nM in series [2]. For the same compound, the “hERG % effect @ conc” value in series [3] (@ 30 μM) is recorded as −12%. The same compound gave a Ki in series [3] greater than 30000 nM.

For `C[C@@H]1COCCN1c1cc(-c2cncn2C)c2c(n1)c(-c1cc[nH]n1)nn2C` [Compound 42, 1-Methyl-7-(3-methyl-3H-imidazol-4-yl)-5-((R)-3-methyl-morpholin-4-yl)-3-(1H-pyrazol-3-yl)-1H-pyrazolo[4,3-b]pyridine], the figures for the concentration for half-maximal inhibition (IC50) in series [1] and in series [2] were 0.3 nM and less than 10 nM, respectively. The “hERG % effect @ conc” value in series [3] (@ 30 μM) is −26%. For the same compound, the Ki in series [3] is greater than 30000 nM.

In the case of `C[C@@H]1COCCN1c1cc(C2CCOCC2)c2c(n1)c(-c1ccn[nH]1)nn2C` [Compound 55, 1-Methyl-5-((R)-3-methyl-morpholin-4-yl)-3-(2H-pyrazol-3-yl)-7-(tetrahydro-pyran-4-yl)-1H-pyrazolo[4,3-b]pyridine], the IC50 in series [1] was 0.7 nM; in series [2] it was 10 to 100 nM. The “hERG % effect @ conc” value in series [3] (@ 10 μM) was −14%. For the same compound, in series [3], the Ki is greater than 10000 nM.

Consider `C[C@@H]1COCCN1c1cc(-c2ccnn2CCF)c2c(n1)c(-c1cc[nH]n1)nn2C` [Compound 36, 7-[2-(2-Fluoro-ethyl)-2H-pyrazol-3-yl]-1-methyl-5-((R)-3-methyl-morpholin-4-yl)-3-(1H-pyrazol-3-yl)-1H-pyrazolo[4,3-b]pyridine], for which the IC50 was 0.6 nM in series [1] and 10 to 100 nM in series [2]. Also, the “hERG % effect @ conc” value in series [3] (@ 10 μM) is given as −9%. For the same compound, in series [3], the Ki was greater than 10000 nM.

Consider `Cc1ccc(-c2cc(N3CCOC[C@H]3C)nc3c(-c4cc[nH]n4)n[nH]c23)cn1` [Compound 2, 5-((R)-3-Methyl-morpholin-4-yl)-7-(6-methyl-pyridin-3-yl)-3-(1H-pyrazol-3-yl)-1H-pyrazolo[4,3-b]pyridine], for which the figures for the IC50 in series [1] and in series [2] were 0.8 nM and 10 to 100 nM, respectively. Further, the “hERG % effect @ conc” value in series [3] (@ 10 μM) is listed as −3%. In addition, the Ki in series [3] was greater than 10000 nM.

On to `C[C@@H]1COCCN1c1cc(-c2ccn(CCF)n2)c2c(n1)c(-c1cc[nH]n1)nn2C` [Compound 34, 7-[1-(2-Fluoro-ethyl)-1H-pyrazol-3-yl]-1-methyl-5-((R)-3-methyl-morpholin-4-yl)-3-(1H-pyrazol-3-yl)-1H-pyrazolo[4,3-b]pyridine], for which the 50% inhibitory concentration (IC50) in series [1] was 6.1 nM; in series [2], 10 to 100 nM. Also, the “hERG % effect @ conc” value in series [3] (@ 10 μM) is −1%. Also, the inhibition constant Ki in series [3] was greater than 10000 nM.

For the compound `C[C@@H]1COCCN1c1cc(-c2ccnc3[nH]ccc23)c2c(n1)c(-c1cc[nH]n1)nn2C` [Compound 15, 1-Methyl-5-((R)-3-methyl-morpholin-4-yl)-3-(1H-pyrazol-3-yl)-7-(1H-pyrrolo[2,3-b]pyridin-4-yl)-1H-pyrazolo[4,3-b]pyridine], the IC50 in series [1] is 0.6 nM; in series [2] it was 10 to 100 nM. Moreover, in series [3] (@ 10 μM), the “hERG % effect @ conc” value was −24%. The Ki in series [3] was greater than 10000 nM.

As to `C[C@@H]1COCCN1c1cc(C2CCOC2)c2c(n1)c(-c1ccn[nH]1)nn2C` (stereo partly drawn) [Compound 70, 1-Methyl-5-((R)-3-methyl-morpholin-4-yl)-3-(2H-pyrazol-3-yl)-7-(tetrahydro-furan-3-yl)-1H-pyrazolo[4,3-b]pyridine], the results for the half-inhibitory concentration (IC50) in series [1] and in series [2] were 2.2 nM and 10 to 100 nM, respectively. Besides, the “hERG % effect @ conc” value in series [3] (@ 10 μM) is −20%. This compound displayed a Ki in series [3] greater than 10000 nM.

In the case of `C[C@@H]1COCCN1c1cc(-c2ccncc2F)c2c(n1)c(-c1cc[nH]n1)nn2C` [Compound 20, 7-(3-Fluoro-pyridin-4-yl)-1-methyl-5-((R)-3-methyl-morpholin-4-yl)-3-(1H-pyrazol-3-yl)-1H-pyrazolo[4,3-b]pyridine], the half-inhibitory concentration (IC50) in series [1] is 1.2 nM; in series [2], 10 to 100 nM. Also, the “hERG % effect @ conc” value in series [3] (@ 10 μM) is recorded as −11%. In series [3], this compound showed a Ki greater than 10000 nM.

Consider `C[C@@H]1COCCN1c1cc(-c2cccc(C#N)c2)c2c(n1)c(-c1cc[nH]n1)nn2C` [Compound 48, 3-{1-Methyl-5-[(3R)-3-methylmorpholin-4-yl]-3-(1H-pyrazol-3-yl)-1H-pyrazolo[4,3-b]pyridin-7-yl}benzonitrile], for which the values for the IC50 in series [1] and in series [2] were 2 nM and 10 to 100 nM, respectively. Besides, the “hERG % effect @ conc” value in series [3] (@ 10 μM) was −32%. The compound further came in with a Ki in series [3] greater than 10000 nM.

Consider `Cc1cc(S(C)(=O)=O)ncc1-c1cc(N2CCOC[C@H]2C)nc2c(-c3cc[nH]n3)nn(C)c12` [Compound 17, 7-(6-Methanesulfonyl-4-methyl-pyridin-3-yl)-1-methyl-5-((R)-3-methyl-morpholin-4-yl)-3-(1H-pyrazol-3-yl)-1H-pyrazolo[4,3-b]pyridine], for which the half-maximal inhibitory concentration (IC50) in series [1] is 3.6 nM; in series [2], 10 to 100 nM. Further, in series [3] (@ 10 μM), the “hERG % effect @ conc” value is recorded as 5%. For the same compound, in series [3], the inhibition constant Ki was greater than 10000 nM.

Take `C[C@@H]1COCCN1c1cc(-c2ccc(S(C)(=O)=O)cc2)c2c(n1)c(-c1cc[nH]n1)nn2C` [Compound 7, 7-(4-Methanesulfonyl-phenyl)-1-methyl-5-((R)-3-methyl-morpholin-4-yl)-3-(1H-pyrazol-3-yl)-1H-pyrazolo[4,3-b]pyridine]: the figures for the half-inhibitory concentration (IC50) in series [1] and in series [2] were 2.3 nM and 10 to 100 nM, respectively. In series [3] (@ 10 μM), the “hERG % effect @ conc” value was −16%. The same compound displayed an inhibition constant (Ki) in series [3] greater than 10000 nM.

As to `Cc1ncccc1-c1cc(N2CCOC[C@H]2C)nc2c(-c3cc[nH]n3)nn(C)c12` [Compound 4, 1-Methyl-5-((R)-3-methyl-morpholin-4-yl)-7-(2-methyl-pyridin-3-yl)-3-(1H-pyrazol-3-yl)-1H-pyrazolo[4,3-b]pyridine], the IC50 is 0.8 nM in series [1] and 10 to 100 nM in series [2]. The “hERG % effect @ conc” value in series [3] (@ 10 μM) is recorded as −12%. The inhibition constant Ki in series [3] was greater than 10000 nM.

Consider `C[C@@H]1COCCN1c1ccc2c(n1)c(-c1ccn[nH]1)nn2C` [Compound 40, (3R)-3-Methyl-4-[1-methyl-3-(1H-pyrazol-5-yl)-1H-pyrazolo[4,3-b]pyridin-5-yl]morpholine], for which the half-inhibitory concentration (IC50) in series [1] is 50.6 nM; in series [2], 100 to 1000 nM. Moreover, the “hERG % effect @ conc” value in series [3] (@ 10 μM) worked out at 9%. In addition, in series [3], the Ki is greater than 10000 nM.

For the compound `CC(C)n1cc(-c2cc(N3CCOC[C@H]3C)nc3c(-c4cc[nH]n4)nn(C)c23)cn1` [Compound 18, 7-(1-Isopropyl-1H-pyrazol-4-yl)-1-methyl-5-((R)-3-methyl-morpholin-4-yl)-3-(1H-pyrazol-3-yl)-1H-pyrazolo[4,3-b]pyridine], the values for the concentration for half-maximal inhibition (IC50) in series [1] and in series [2] were 6.2 nM and 100 to 1000 nM, respectively. Moreover, the “hERG % effect @ conc” value in series [3] (@ 10 μM) is −14%. Moreover, the Ki in series [3] was greater than 10000 nM.
